{
  "source": "patent USRE48335E1",
  "about": "“Polymyxin derivatives as antimicrobial compounds” (priority 2014, dated 2020)",
  "key": {"P. aeruginosa ATCC 27853": {"test_system": "P. aeruginosa ATCC 27853", "assay": "In vivo efficacy in mouse blood infection model (neutropenic Swiss mice)", "conditions": "compound, free base 4 mg/kg intravenously 2 h after inoculation, blood at 4 h", "summary_of_the_method": "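Activity expressed as Δlog10 CFU/mL blood, treated minus saline control, 4 h after a single 4 mg/kg (free base) i.v. dose given 2 h post-infection. Bloodstream infection from i.v. early log-phase inoculum in Swiss mice made neutropenic by i.p. cyclophosphamide on days −4 (150 mg/kg) and −1 (100 mg/kg).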"}, "Enterobacter cloacae": {"test_system": "Enterobacter cloacae", "summary_of_the_method": "(§1)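 Lipopeptides, as trifluoroacetate salts, tested for MIC in CAMHB by CLSI broth microdilution, with polymyxin B (sulphate) as comparator.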"}, "Acinetobacter baumannii": {"test_system": "Acinetobacter baumannii", "summary_of_the_method": "as §1"}, "Pseudomonas aeruginosa": {"test_system": "Pseudomonas aeruginosa", "summary_of_the_method": "as §1"}, "Klebsiella pneumoniae": {"test_system": "Klebsiella pneumoniae", "summary_of_the_method": "as §1"}},
  "note": "Positions of bridges follow the written chain, without caps; N, C: chain ends. Non-standard residues stand in square brackets, D forms with d. Residues, ends and D or L forms follow the SMILES beside them. *: point of attachment. Benzoyl(4-Et) = CCc1ccc(C(=O)*)cc1; X20 = Cc1cc(C(=O)*)ccc1C(F)(F)F; Nonanoyl = CCCCCCCCC(=O)*; Dab = NCC[C@H](N)C(=O)O; Abu = CC[C@H](N)C(=O)O; Dap = NC[C@H](N)C(=O)O; Hexanoyl = CCCCCC(=O)*",
  "data": [
    {"compound": "CC[C@@H]1NC(=O)[C@@H](CC(C)C)NC(=O)[C@H](CCN)NC(=O)[C@@H](NC(=O)[C@H](CN)NC(=O)[C@@H](NC(=O)[C@H](CCN)NC(=O)c2ccc(C(F)(F)F)c(C)c2)[C@@H](C)O)CCNC(=O)[C@H]([C@@H](C)O)NC(=O)[C@H](CCN)NC(=O)[C@H](CCN)NC1=O", "note": "[Compound 119] (X20-[Dab]T[Dap][Dab][Dab][dL][Abu][Dab][Dab]T; lactam 4-C)", "values": [
      {"measurement": "Δ log (Treated-Control at 4 h)", "setting": "P. aeruginosa ATCC 27853", "result": "−3.40", "unit": "log10 CFU/mL"},
      {"measurement": "Minimum inhibitory concentration, Ec FADDI-EC001", "setting": "Enterobacter cloacae", "result": "<0.125", "unit": "µg/mL"},
      {"measurement": "Minimum inhibitory concentration, Ec FADDI-EC003", "setting": "Enterobacter cloacae", "result": "<0.125", "unit": "µg/mL"},
      {"measurement": "Minimum inhibitory concentration, Ec FADDI-EC006", "setting": "Enterobacter cloacae", "result": 0.25, "unit": "µg/mL"},
      {"measurement": "MIC", "setting": "Acinetobacter baumannii", "result": 1, "unit": "µg/mL"},
      {"measurement": "Minimum inhibitory concentration, Ab A ATCC 17978", "setting": "Acinetobacter baumannii", "result": 0.5, "unit": "µg/mL"},
      {"measurement": "Minimum inhibitory concentration, Ab ATCC 19606", "setting": "Acinetobacter baumannii", "result": 1, "unit": "µg/mL"},
      {"measurement": "Minimum inhibitory concentration, Ab FADDI-AB034", "setting": "Acinetobacter baumannii", "result": 0.25, "unit": "µg/mL"},
      {"measurement": "MIC", "setting": "Pseudomonas aeruginosa", "result": 0.5, "unit": "µg/mL"},
      {"measurement": "Minimum inhibitory concentration, Pa ATCC 27853", "setting": "Pseudomonas aeruginosa", "result": 0.5, "unit": "µg/mL"},
      {"measurement": "Minimum inhibitory concentration, Pa FADDI-PA022", "setting": "Pseudomonas aeruginosa", "result": 0.5, "unit": "µg/mL"},
      {"measurement": "Minimum inhibitory concentration, Pa FADDI-PA025", "setting": "Pseudomonas aeruginosa", "result": 2, "unit": "µg/mL"},
      {"measurement": "MIC", "setting": "Klebsiella pneumoniae", "result": "<0.125", "unit": "µg/mL"}
    ]},
    {"compound": "CCCCCC(=O)N[C@@H](CCN)C(=O)N[C@H](C(=O)N[C@H](CO)C(=O)N[C@H]1CCNC(=O)[C@H]([C@@H](C)O)NC(=O)[C@H](CCN)NC(=O)[C@H](CCN)NC(=O)[C@H]([C@@H](C)O)NC(=O)[C@@H](CC(C)C)NC(=O)[C@H](CCN)NC1=O)[C@@H](C)O", "note": "[Compound 8] (Hexanoyl-[Dab]T[dS][Dab][Dab][dL]T[Dab][Dab]T; lactam 4-C)", "values": [
      {"measurement": "Δ log (Treated-Control at 4 h)", "setting": "P. aeruginosa ATCC 27853", "result": "−0.05", "unit": "log10 CFU/mL"},
      {"measurement": "Minimum inhibitory concentration, Ec FADDI-EC001", "setting": "Enterobacter cloacae", "result": 0.25, "unit": "µg/mL"},
      {"measurement": "Minimum inhibitory concentration, Ec FADDI-EC003", "setting": "Enterobacter cloacae", "result": 0.5, "unit": "µg/mL"},
      {"measurement": "Minimum inhibitory concentration, Ec FADDI-EC006", "setting": "Enterobacter cloacae", "result": 0.25, "unit": "µg/mL"},
      {"measurement": "MIC", "setting": "Acinetobacter baumannii", "result": 2, "unit": "µg/mL"},
      {"measurement": "Minimum inhibitory concentration, Ab A ATCC 17978", "setting": "Acinetobacter baumannii", "result": 2, "unit": "µg/mL"},
      {"measurement": "Minimum inhibitory concentration, Ab ATCC 19606", "setting": "Acinetobacter baumannii", "result": 2, "unit": "µg/mL"},
      {"measurement": "Minimum inhibitory concentration, Ab FADDI-AB034", "setting": "Acinetobacter baumannii", "result": 1, "unit": "µg/mL"},
      {"measurement": "MIC", "setting": "Pseudomonas aeruginosa", "result": 4, "unit": "µg/mL"},
      {"measurement": "Minimum inhibitory concentration, Pa ATCC 27853", "setting": "Pseudomonas aeruginosa", "result": 4, "unit": "µg/mL"},
      {"measurement": "Minimum inhibitory concentration, Pa FADDI-PA022", "setting": "Pseudomonas aeruginosa", "result": 8, "unit": "µg/mL"},
      {"measurement": "Minimum inhibitory concentration, Pa FADDI-PA025", "setting": "Pseudomonas aeruginosa", "result": ">32", "unit": "µg/mL"},
      {"measurement": "MIC", "setting": "Klebsiella pneumoniae", "result": 1, "unit": "µg/mL"}
    ]},
    {"compound": "CCc1ccc(C(=O)N[C@@H](CCN)C(=O)N[C@H](C(=O)N[C@@H](CN)C(=O)N[C@H]2CCNC(=O)[C@H]([C@@H](C)O)NC(=O)[C@H](CCN)NC(=O)[C@H](CCN)NC(=O)[C@H](CC)NC(=O)[C@@H](CC(C)C)NC(=O)[C@H](CCN)NC2=O)[C@@H](C)O)cc1", "note": "[Compound 100] ({Benzoyl(4-Et)}-[Dab]T[Dap][Dab][Dab][dL][Abu][Dab][Dab]T; lactam 4-C)", "values": [
      {"measurement": "Δ log (Treated-Control at 4 h)", "setting": "P. aeruginosa ATCC 27853", "result": "−3.83 (−3.83) log10 CFU/mL"},
      {"measurement": "Minimum inhibitory concentration, Ec FADDI-EC001", "setting": "Enterobacter cloacae", "result": 0.25, "unit": "µg/mL"},
      {"measurement": "Minimum inhibitory concentration, Ec FADDI-EC003", "setting": "Enterobacter cloacae", "result": 0.5, "unit": "µg/mL"},
      {"measurement": "Minimum inhibitory concentration, Ec FADDI-EC006", "setting": "Enterobacter cloacae", "result": 0.5, "unit": "µg/mL"},
      {"measurement": "MIC", "setting": "Acinetobacter baumannii", "result": 2, "unit": "µg/mL"},
      {"measurement": "Minimum inhibitory concentration, Ab A ATCC 17978", "setting": "Acinetobacter baumannii", "result": 1, "unit": "µg/mL"},
      {"measurement": "Minimum inhibitory concentration, Ab ATCC 19606", "setting": "Acinetobacter baumannii", "result": 2, "unit": "µg/mL"},
      {"measurement": "Minimum inhibitory concentration, Ab FADDI-AB034", "setting": "Acinetobacter baumannii", "result": 1, "unit": "µg/mL"},
      {"measurement": "MIC", "setting": "Pseudomonas aeruginosa", "result": 0.5, "unit": "µg/mL"},
      {"measurement": "Minimum inhibitory concentration, Pa ATCC 27853", "setting": "Pseudomonas aeruginosa", "result": 0.5, "unit": "µg/mL"},
      {"measurement": "Minimum inhibitory concentration, Pa FADDI-PA022", "setting": "Pseudomonas aeruginosa", "result": 0.5, "unit": "µg/mL"},
      {"measurement": "Minimum inhibitory concentration, Pa FADDI-PA025", "setting": "Pseudomonas aeruginosa", "result": 2, "unit": "µg/mL"},
      {"measurement": "MIC", "setting": "Klebsiella pneumoniae", "result": 0.5, "unit": "µg/mL"}
    ]},
    {"compound": "CCCCCCCCC(=O)N[C@@H](CCN)C(=O)N[C@H](C(=O)N[C@@H](CN)C(=O)N[C@H]1CCNC(=O)[C@H]([C@@H](C)O)NC(=O)[C@H](CCN)NC(=O)[C@H](CCN)NC(=O)[C@H](CC)NC(=O)[C@@H](CC(C)C)NC(=O)[C@H](CCN)NC1=O)[C@@H](C)O", "note": "[Compound 59] (Nonanoyl-[Dab]T[Dap][Dab][Dab][dL][Abu][Dab][Dab]T; lactam 4-C)", "values": [
      {"measurement": "Δ log (Treated-Control at 4 h)", "setting": "P. aeruginosa ATCC 27853", "result": "−2.82", "unit": "log10 CFU/mL"},
      {"measurement": "Minimum inhibitory concentration, Ec FADDI-EC001", "setting": "Enterobacter cloacae", "result": 1, "unit": "µg/mL"},
      {"measurement": "Minimum inhibitory concentration, Ec FADDI-EC003", "setting": "Enterobacter cloacae", "result": 1, "unit": "µg/mL"},
      {"measurement": "Minimum inhibitory concentration, Ec FADDI-EC006", "setting": "Enterobacter cloacae", "result": 0.5, "unit": "µg/mL"},
      {"measurement": "MIC", "setting": "Acinetobacter baumannii", "result": 2, "unit": "µg/mL"},
      {"measurement": "Minimum inhibitory concentration, Ab A ATCC 17978", "setting": "Acinetobacter baumannii", "result": 1, "unit": "µg/mL"},
      {"measurement": "Minimum inhibitory concentration, Ab ATCC 19606", "setting": "Acinetobacter baumannii", "result": 2, "unit": "µg/mL"},
      {"measurement": "Minimum inhibitory concentration, Ab FADDI-AB034", "setting": "Acinetobacter baumannii", "result": 0.5, "unit": "µg/mL"},
      {"measurement": "MIC", "setting": "Pseudomonas aeruginosa", "result": 1, "unit": "µg/mL"},
      {"measurement": "Minimum inhibitory concentration, Pa ATCC 27853", "setting": "Pseudomonas aeruginosa", "result": 1, "unit": "µg/mL"},
      {"measurement": "Minimum inhibitory concentration, Pa FADDI-PA022", "setting": "Pseudomonas aeruginosa", "result": 2, "unit": "µg/mL"},
      {"measurement": "Minimum inhibitory concentration, Pa FADDI-PA025", "setting": "Pseudomonas aeruginosa", "result": 2, "unit": "µg/mL"},
      {"measurement": "MIC", "setting": "Klebsiella pneumoniae", "result": "<0.125", "unit": "µg/mL"}
    ]}
  ]
}
